Like-named read-outs stand apart in the source and are kept apart here.
Columns and labels:
[1] = target: T1, complex I; assay: complex I NADH:paraquat electron transfer, microplate activity assay (ubiquinone replaced by paraquat); format: biochemical, Bos taurus
T1 construct: gene NDUFV1; MitoTox Complex I OXPHOS Activity Microplate Assay (ab109903)

[2] = system: T2, complex I; assay: NADH oxidation in rat liver submitochondrial particles; format: biochemical
T2 construct: gene Ndufv1; submitochondrial particles from rat liver

[H]/N=C(/N)NCCCCCNC(=N)N [DG5]
IC50 [1]: 12 mM

CN(C)C(=N)N=C(N)N [metformin]
IC50 ([1]; read-out: IC50): 91 mM

[H]/N=C(/N)N/C(=N/[H])NCCc1ccccc1 [phenformin]
NADH oxidation in rat liver submitochondrial particles [2]: Effects of both phenformin and DG5 on NADH oxidation were observed at much lower concentrations than responses to metformin

From article PMC5609876, “Metformin selectively targets redox control of complex I energy transduction” (Redox Biology, 2017)
